The target of assay [1] is T1, Glycogen phosphorylase, muscle form (Oryctolagus cuniculus) (UniProt P00489).
T1 sequence (whole entry): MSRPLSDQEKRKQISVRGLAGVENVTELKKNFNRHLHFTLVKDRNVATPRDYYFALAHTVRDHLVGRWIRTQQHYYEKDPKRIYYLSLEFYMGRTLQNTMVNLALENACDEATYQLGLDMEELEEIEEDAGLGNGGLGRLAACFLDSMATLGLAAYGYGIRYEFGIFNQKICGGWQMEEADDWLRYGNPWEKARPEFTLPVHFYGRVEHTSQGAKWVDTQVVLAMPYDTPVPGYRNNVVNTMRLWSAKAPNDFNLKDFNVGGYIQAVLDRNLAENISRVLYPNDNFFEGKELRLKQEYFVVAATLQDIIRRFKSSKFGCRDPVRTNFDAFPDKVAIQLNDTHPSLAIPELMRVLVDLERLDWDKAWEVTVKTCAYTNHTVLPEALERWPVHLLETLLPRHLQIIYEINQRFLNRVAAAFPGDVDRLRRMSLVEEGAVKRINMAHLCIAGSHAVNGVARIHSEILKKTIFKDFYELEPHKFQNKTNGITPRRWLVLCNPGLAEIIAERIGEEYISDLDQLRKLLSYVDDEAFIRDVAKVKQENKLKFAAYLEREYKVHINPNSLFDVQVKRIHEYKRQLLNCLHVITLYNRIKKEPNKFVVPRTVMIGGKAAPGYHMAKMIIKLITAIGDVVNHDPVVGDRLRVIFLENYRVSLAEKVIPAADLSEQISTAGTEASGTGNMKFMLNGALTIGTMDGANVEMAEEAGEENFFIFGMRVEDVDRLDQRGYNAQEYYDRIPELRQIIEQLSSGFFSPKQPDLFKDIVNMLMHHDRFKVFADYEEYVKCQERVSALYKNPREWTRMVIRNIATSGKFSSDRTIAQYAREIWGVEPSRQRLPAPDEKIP
Kind of assay: Inhibition of rabbit muscle glycogen phosphorylase assessed as release of phosphate from glucose 1 phosphate at 0.222 to 22 mM.

For assay [2], the target named is T1, Glycogen phosphorylase, muscle form (Oryctolagus cuniculus). Kind of assay: Inhibition of rabbit glycogen phosphorylase assessed as release of phosphate from glucose 1 phosphate at 22 mM.
For assay [3], the target named is T2, Glycogen phosphorylase, muscle form (Oryctolagus cuniculus, UniProt P00489).
T2 sequence (P00489 whole entry): T1 sequence (whole entry)
Kind of assay: Inhibition of rabbit muscle glycogen phosphorylase assessed as release of phosphate from glucose 1 phosphate.

Assay [4] concerns the target T1, Glycogen phosphorylase, muscle form (Oryctolagus cuniculus). Kind of assay: Inhibition of rabbit glycogen phosphorylase assessed as release of phosphate from glucose 1 phosphate at <=1.4 to 3 mM.
Assay [5] has the same target. Kind of assay: Inhibition of rabbit glycogen phosphorylase assessed as release of phosphate from glucose 1 phosphate at 3 mM.

The source made the active and inactive calls. The rule behind the calls is not given here.

With `O=C(O)c1ccc2c(c1C(=O)N1CCOCC1)C(=O)CCC2`, the result in assay [1] was inactive.

`CC1(C)C=CC(=O)c2c1ccc1c2C(O)OC1=O` (stereo not drawn): the outcome in assay [1] was inactive.

Turning to `COC(=O)c1ccc2c(c1C(=O)OC)C(=O)CCC2(C)C`, in assay [1], the result was inactive.

As a reminder, the inhibition is the change of the read-out against control, counted positive when it falls. As a reminder, the IC50 is the concentration at which inhibition is half-maximal. Turning to `O=C(O)c1ccc2c3c1C(=O)N(Cc1ccccc1)C3(O)CCC2` (stereo not drawn), in assay [2], the inhibition worked out at 65%. Besides, the IC50 in assay [3] is 1200 µM.

For `CO[C@@H]1OC(=O)c2ccc3c(c21)C(=O)[C@@H]1O[C@@H]1C3(C)C` (racemic), the outcome in assay [1] and in assay [4] was inactive.

For `CCN(CC)C(=O)c1c(C(=O)O)ccc2c1C(=O)CCC2`, the result in assay [1] was inactive.

For `O=C1OC(=O)c2c1ccc1c2C(=O)CCC1`, the result in assay [1] was inactive.

Turning to `O=C(O)c1ccc2c3c1C(=O)N(c1ccccc1)C3(O)CCC2` (stereo not drawn), the result in assay [1] was inactive.

As for `CC1(C)CCC(=O)c2c1ccc(C(=O)O)c2C(=O)O`, the result in assay [1] was inactive.

Turning to `COC1OC(=O)c2ccc3c(c21)C(=O)C=CC3(C)C` (stereo not drawn), the inhibition in assay [5] stood at 15%.

In the case of `CC1(C)C=CC(=O)c2c1ccc(C(=O)O)c2C(=O)O`, the result in assay [1] was inactive.

For `O=C(O)c1ccc2c(c1C(=O)NCc1ccccc1)C(=O)CCC2`, the inhibition in assay [2] turned out to be 89%. For the same compound, the IC50 in assay [3] is 11700 µM.

Turning to `CCCCCSC(=O)c1c(C(=O)O)ccc2c1C(=O)CCC2`, in assay [2], the inhibition was found to be 55%. Also, in assay [3], the IC50 came to 1300 µM.

Turning to `CC1(C)c2ccc3c(c2C(=O)[C@@H]2O[C@@H]21)[C@H](O)OC3=O` (racemic), the outcome in assay [1] and in assay [4] was inactive.

On to `O=C(O)c1ccc2c(c1C(=O)O)C(=O)CCC2`, for which the result in assay [1] was inactive.

With `COC(=O)c1ccc2c(c1C(=O)OC)C(=O)C(Br)CC2(C)C` (stereo not drawn), in assay [1], the outcome was inactive.

As to `O=C(O)c1ccc2c(c1C(=O)Nc1ccccc1)C(=O)CCC2`, the result in assay [1] was inactive.

`COC(=O)c1ccc2c(c1C(=O)OC)C(=O)C=CC2(C)C`: the result in assay [1] was inactive.

As for `O=C(O)c1ccc2c3c1C(=O)N(c1ccccc1)C3=CCC2`, the inhibition in assay [2] came to 46%. Also, in assay [3], the IC50 was determined as 800 µM.

As for `CC(C)OC(=O)c1c(C(=O)O)ccc2c1C(=O)CCC2`, the result in assay [1] was inactive.

For `COC(=O)c1c(C(=O)O)ccc2c1C(=O)CCC2`, in assay [1], the outcome was inactive.

`COC(=O)c1ccc2c(c1C(=O)OC)C(=O)CCC2`: the outcome in assay [1] was inactive.

As to `CC1(C)CCC(=O)c2c1ccc1c2C(O)OC1=O` (stereo not drawn), the result in assay [1] and in assay [4] was inactive.

On to `COC(=O)c1ccc2c(c1C(=O)OC)C(=O)[C@@H]1O[C@@H]1C2(C)C` (racemic), for which the outcome in assay [1] was inactive.

As for `O=C(O)c1ccc2c3c1C(=O)N(Cc1ccccc1)C3=CCC2`, the inhibition in assay [2] worked out at 46%. Besides, in assay [3], the IC50 amounted to 1100 µM.

(Values after ChEMBL document CHEMBL1150399, “Evaluation of novel hyphodermin derivatives as glycogen phosphorylase a inhibitors” (Bioorg Med Chem, 2008).)
